From patent publication US12522607B2, “Substituted pyrazolo[3,4-d]pyrimidines as wee-1 inhibitors” (WIGEN BIOMEDICINE TECHNOLOGY (SHANGHAI) CO., LTD., priority 2020, dated 2026)

Experiments:
[1] = target: T1, Wee-1 kinase (Homo sapiens, UniProt P30291); assay: Inhibitory activity against Wee-1 kinase (Lanthra Screen Wee-1 kinase kit, Tracer 178); assay type: binding; conditions: Wee-1 kinase 5 nM, Tracer 178 50 nM, 1 h room temperature
T1 construct: purchased Invitrogen
In short: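 Compound gradient in DMSO mixed with 5 nM Wee-1, 2 nM Eu-anti-GST antibody and 50 nM Tracer 178 (all final). Read after one hour at room temperature; IC50 calculated against the DMSO solvent control.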

[2] = system: HT29 cells; assay: Antiproliferative activity against HT29 cells (Cell Titer-Lumi, ATP content); assay type: cell-based; conditions: Homo sapiens, HT-29, 72 after compound addition, read-out: HT-29 cells Anti-proliferative activity (IC50 for the inhibition against HT-29 cell growth)
In short: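 Growth inhibition IC50 derived from luminescent ATP content after 72 (units as printed) of compound exposure over a dilution gradient. Seeding density 3000 cells per well; compound added once cells had adhered overnight.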

T1 sequence (P30291 whole entry): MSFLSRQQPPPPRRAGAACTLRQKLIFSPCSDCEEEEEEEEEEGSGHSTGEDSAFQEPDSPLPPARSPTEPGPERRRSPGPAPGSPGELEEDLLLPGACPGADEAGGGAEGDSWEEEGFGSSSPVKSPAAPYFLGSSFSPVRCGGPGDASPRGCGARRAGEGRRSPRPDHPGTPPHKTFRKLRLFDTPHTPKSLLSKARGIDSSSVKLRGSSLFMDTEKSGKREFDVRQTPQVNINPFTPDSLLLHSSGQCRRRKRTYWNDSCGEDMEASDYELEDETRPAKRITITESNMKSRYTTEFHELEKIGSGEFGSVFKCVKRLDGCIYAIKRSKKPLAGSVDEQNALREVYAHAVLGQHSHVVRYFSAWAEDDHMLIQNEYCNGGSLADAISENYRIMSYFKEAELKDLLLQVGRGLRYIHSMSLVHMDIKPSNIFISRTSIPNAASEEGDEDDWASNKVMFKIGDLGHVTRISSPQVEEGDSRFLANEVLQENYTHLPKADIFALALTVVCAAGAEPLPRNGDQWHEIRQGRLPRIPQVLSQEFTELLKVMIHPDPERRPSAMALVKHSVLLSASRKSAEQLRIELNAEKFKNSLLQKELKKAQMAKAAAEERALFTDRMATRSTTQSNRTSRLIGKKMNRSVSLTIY

Compound	IC50 [1]	IC50 [2]
C=CCn1c(=O)c2cnc(Nc3cc(N4CCC(N(C)C)CC4)c4ccn(C)c4c3)nc2n1-c1ccc(=O)n(C(C)C)n1 [Compound 257]	≤ 30 nM	≤ 1000 nM
C=CCn1c(=O)c2cnc(Nc3cc(N4CCN(C)CC4)c4ccn(C5CC5)c4c3)nc2n1-c1ccc(=O)n(C(C)C)n1 [Compound 258]	≤ 30 nM	≤ 1000 nM
C=CCn1c(=O)c2cnc(Nc3cc(N4CCN(C(C)C)CC4)c4ccn(C5CC5)c4c3)nc2n1-c1ccc(=O)n(C(C)C)n1 [Compound 259]	≤ 30 nM	≤ 1000 nM
C=CCn1c(=O)c2cnc(Nc3cc(N4CCC(N(C)C)CC4)c4ccn(C5CC5)c4c3)nc2n1-c1ccc(=O)n(C(C)C)n1 [Compound 260]	≤ 30 nM	≤ 1000 nM
C=CCn1c(=O)c2cnc(Nc3ccc4c(N5CCN(C)CC5)c[nH]c4c3)nc2n1-c1ccc(=O)n(C(C)C)n1 [Compound 261]	≤ 30 nM	≤ 1000 nM
C=CCn1c(=O)c2cnc(Nc3ccc4c(N5CCN(C(C)C)CC5)c[nH]c4c3)nc2n1-c1ccc(=O)n(C(C)C)n1 [Compound 262]	≤ 30 nM	≤ 1000 nM
C=CCn1c(=O)c2cnc(Nc3ccc4c(N5CCC(N(C)C)CC5)c[nH]c4c3)nc2n1-c1ccc(=O)n(C(C)C)n1 [Compound 263]	≤ 30 nM	≤ 1000 nM
C=CCn1c(=O)c2cnc(Nc3ccc4c(N5CCN(C)CC5)cn(C)c4c3)nc2n1-c1ccc(=O)n(C(C)C)n1 [Compound 264]	≤ 30 nM	≤ 1000 nM
C=CCn1c(=O)c2cnc(Nc3ccc4c(N5CCN(C(C)C)CC5)cn(C)c4c3)nc2n1-c1ccc(=O)n(C(C)C)n1 [Compound 265]	≤ 30 nM	≤ 1000 nM
C=CCn1c(=O)c2cnc(Nc3ccc4c(N5CCC(N(C)C)CC5)cn(C)c4c3)nc2n1-c1ccc(=O)n(C(C)C)n1 [Compound 266]	≤ 30 nM	≤ 1000 nM
C=CCn1c(=O)c2cnc(Nc3ccc4c(C5CCN(C)CC5)c[nH]c4c3)nc2n1-c1ccc(=O)n(C(C)C)n1 [Compound 267]	≤ 30 nM	≤ 1000 nM
C=CCn1c(=O)c2cnc(Nc3ccc4c(C5CCN(C(C)C)CC5)cn(C)c4c3)nc2n1-c1ccc(=O)n(C(C)C)n1 [Compound 268]	≤ 30 nM	≤ 1000 nM
C=CCn1c(=O)c2cnc(Nc3ccc4c(ccn4C4CCNCC4)c3)nc2n1-c1ccc(=O)n(C(C)C)n1 [Compound 269]	≤ 30 nM	≤ 1000 nM
C=CCn1c(=O)c2cnc(Nc3ccc4c(ccn4C4CCN(C)CC4)c3)nc2n1-c1ccc(=O)n(C(C)C)n1 [Compound 270]	≤ 30 nM	≤ 1000 nM
C=CCn1c(=O)c2cnc(Nc3ccc4c(ccn4C4CCN(C(C)C)CC4)c3)nc2n1-c1ccc(=O)n(C(C)C)n1 [Compound 271]	≤ 30 nM	≤ 1000 nM
Cc1cc(Nc2ncc3c(=O)n(C4CC4)n(-c4ccc(=O)n(C(C)C)n4)c3n2)ccc1N1CCN(C)CC1 [Compound 272]	≤ 30 nM	≤ 1000 nM
Cc1cc(Nc2ncc3c(=O)n(C4CC4)n(-c4ccc(=O)n(C(C)C)n4)c3n2)ccc1C1CCN(C)CC1 [Compound 273]	≤ 30 nM	≤ 1000 nM
CC(C)n1nc(-n2c3nc(Nc4ccc5c(c4)CN(C)CC54CC4)ncc3c(=O)n2C2CC2)ccc1=O [Compound 274]	≤ 30 nM	≤ 1000 nM
CCn1c(=O)c2cnc(Nc3ccc(N4CCN(C)CC4)c(C)c3)nc2n1-c1ccc(=O)n(C(C)C)n1 [Compound 275]	≤ 30 nM	≤ 1000 nM
CCn1c(=O)c2cnc(Nc3ccc(C4CCN(C)CC4)c(C)c3)nc2n1-c1ccc(=O)n(C(C)C)n1 [Compound 276]	≤ 30 nM	≤ 1000 nM
CCn1c(=O)c2cnc(Nc3ccc4c(c3)CN(C)CC43CC3)nc2n1-c1ccc(=O)n(C(C)C)n1 [Compound 277]	≤ 30 nM	≤ 1000 nM
Cc1cc(Nc2ncc3c(=O)n(C(C)C)n(-c4ccc(=O)n(C(C)C)n4)c3n2)ccc1N1CCN(C)CC1 [Compound 278]	≤ 30 nM	≤ 1000 nM
Cc1cc(Nc2ncc3c(=O)n(C(C)C)n(-c4ccc(=O)n(C(C)C)n4)c3n2)ccc1C1CCN(C)CC1 [Compound 279]	≤ 30 nM	≤ 1000 nM
CC(C)n1nc(-n2c3nc(Nc4ccc5c(c4)CN(C)CC54CC4)ncc3c(=O)n2C(C)C)ccc1=O [Compound 280]	≤ 30 nM	≤ 1000 nM
C=CCn1c(=O)c2cnc(Nc3ccc(N4CCN(C)CC4)c(C)c3)nc2n1-c1ccc(=O)n(C(C)(C)C)n1 [Compound 281]	≤ 30 nM	≤ 1000 nM
C=CCn1c(=O)c2cnc(Nc3ccc(C4CCN(C)CC4)c(C)c3)nc2n1-c1ccc(=O)n(C(C)(C)C)n1 [Compound 282]	≤ 30 nM	≤ 1000 nM
C=CCn1c(=O)c2cnc(Nc3ccc4c(c3)CN(C)CC43CC3)nc2n1-c1ccc(=O)n(C(C)(C)C)n1 [Compound 283]	≤ 30 nM	≤ 1000 nM
CCn1c(=O)c2cnc(Nc3ccc(N4CCN(C)CC4)cc3)nc2n1-c1ccc(=O)n(C(C)(C)C)n1 [Compound 284]	≤ 30 nM	≤ 1000 nM

Compound	IC50 [1]	IC50 [2]
CCn1c(=O)c2cnc(Nc3ccc(N4CCN(C)CC4)c(C)c3)nc2n1-c1ccc(=O)n(C(C)(C)C)n1 [Compound 285]	≤ 30 nM	≤ 1000 nM
CCn1c(=O)c2cnc(Nc3ccc(C4CCN(C)CC4)c(C)c3)nc2n1-c1ccc(=O)n(C(C)(C)C)n1 [Compound 286]	≤ 30 nM	≤ 1000 nM
CCn1c(=O)c2cnc(Nc3ccc4c(c3)CN(C)CC43CC3)nc2n1-c1ccc(=O)n(C(C)(C)C)n1 [Compound 287]	≤ 30 nM	≤ 1000 nM
CC(C)n1c(=O)c2cnc(Nc3ccc(N4CCN(C)CC4)cc3)nc2n1-c1ccc(=O)n(C(C)(C)C)n1 [Compound 288]	≤ 30 nM	≤ 1000 nM
Cc1cc(Nc2ncc3c(=O)n(C(C)C)n(-c4ccc(=O)n(C(C)(C)C)n4)c3n2)ccc1N1CCN(C)CC1 [Compound 289]	≤ 30 nM	≤ 1000 nM
Cc1cc(Nc2ncc3c(=O)n(C(C)C)n(-c4ccc(=O)n(C(C)(C)C)n4)c3n2)ccc1C1CCN(C)CC1 [Compound 290]	≤ 30 nM	≤ 1000 nM
CC(C)n1c(=O)c2cnc(Nc3ccc4c(c3)CN(C)CC43CC3)nc2n1-c1ccc(=O)n(C(C)(C)C)n1 [Compound 291]	≤ 30 nM	≤ 1000 nM
CN1CCN(c2ccc(Nc3ncc4c(=O)n(C5CC5)n(-c5ccc(=O)n(C(C)(C)C)n5)c4n3)cc2)CC1 [Compound 292]	≤ 30 nM	≤ 1000 nM
Cc1cc(Nc2ncc3c(=O)n(C4CC4)n(-c4ccc(=O)n(C(C)(C)C)n4)c3n2)ccc1N1CCN(C)CC1 [Compound 293]	≤ 30 nM	≤ 1000 nM
Cc1cc(Nc2ncc3c(=O)n(C4CC4)n(-c4ccc(=O)n(C(C)(C)C)n4)c3n2)ccc1C1CCN(C)CC1 [Compound 294]	≤ 30 nM	≤ 1000 nM
CN1Cc2cc(Nc3ncc4c(=O)n(C5CC5)n(-c5ccc(=O)n(C(C)(C)C)n5)c4n3)ccc2C2(CC2)C1 [Compound 295]	≤ 30 nM	≤ 1000 nM
C=CCn1c(=O)c2cnc(Nc3ccc(N4CCN(C)CC4)c(C)c3)nc2n1-c1ccc(=O)n(C(C)C)c1 [Compound 296]	≤ 30 nM	≤ 1000 nM
C=CCn1c(=O)c2cnc(Nc3ccc(C4CCN(C)CC4)c(C)c3)nc2n1-c1ccc(=O)n(C(C)C)c1 [Compound 297]	≤ 30 nM	≤ 1000 nM
C=CCn1c(=O)c2cnc(Nc3ccc4c(c3)CN(C)CC43CC3)nc2n1-c1ccc(=O)n(C(C)C)c1 [Compound 298]	≤ 30 nM	≤ 1000 nM
CCn1c(=O)c2cnc(Nc3ccc(N4CCN(C)CC4)cc3)nc2n1-c1ccc(=O)n(C(C)C)c1 [Compound 299]	≤ 30 nM	≤ 1000 nM
CCn1c(=O)c2cnc(Nc3ccc(N4CCN(C)CC4)c(C)c3)nc2n1-c1ccc(=O)n(C(C)C)c1 [Compound 300]	≤ 30 nM	≤ 1000 nM
CCn1c(=O)c2cnc(Nc3ccc(C4CCN(C)CC4)c(C)c3)nc2n1-c1ccc(=O)n(C(C)C)c1 [Compound 301]	≤ 30 nM	≤ 1000 nM
CCn1c(=O)c2cnc(Nc3ccc4c(c3)CN(C)CC43CC3)nc2n1-c1ccc(=O)n(C(C)C)c1 [Compound 302]	≤ 30 nM	≤ 1000 nM
CC(C)n1cc(-n2c3nc(Nc4ccc(N5CCN(C)CC5)cc4)ncc3c(=O)n2C(C)C)ccc1=O [Compound 303]	≤ 30 nM	≤ 1000 nM
Cc1cc(Nc2ncc3c(=O)n(C(C)C)n(-c4ccc(=O)n(C(C)C)c4)c3n2)ccc1N1CCN(C)CC1 [Compound 304]	≤ 30 nM	≤ 1000 nM
Cc1cc(Nc2ncc3c(=O)n(C(C)C)n(-c4ccc(=O)n(C(C)C)c4)c3n2)ccc1C1CCN(C)CC1 [Compound 305]	≤ 30 nM	≤ 1000 nM
CC(C)n1cc(-n2c3nc(Nc4ccc5c(c4)CN(C)CC54CC4)ncc3c(=O)n2C(C)C)ccc1=O [Compound 306]	≤ 30 nM	≤ 1000 nM
CC(C)n1cc(-n2c3nc(Nc4ccc(N5CCN(C)CC5)cc4)ncc3c(=O)n2C2CC2)ccc1=O [Compound 307]	≤ 30 nM	≤ 1000 nM
Cc1cc(Nc2ncc3c(=O)n(C4CC4)n(-c4ccc(=O)n(C(C)C)c4)c3n2)ccc1N1CCN(C)CC1 [Compound 308]	≤ 30 nM	≤ 1000 nM
Cc1cc(Nc2ncc3c(=O)n(C4CC4)n(-c4ccc(=O)n(C(C)C)c4)c3n2)ccc1C1CCN(C)CC1 [Compound 309]	≤ 30 nM	≤ 1000 nM
CC(C)n1cc(-n2c3nc(Nc4ccc5c(c4)CN(C)CC54CC4)ncc3c(=O)n2C2CC2)ccc1=O [Compound 310]	≤ 30 nM	≤ 1000 nM
C=CCn1c(=O)c2cnc(Nc3ccc(N4CCN(C)CC4)c(OC)c3)nc2n1-c1cc(F)c(=O)n(C(C)C)c1 [Compound 311]	≤ 30 nM	≤ 1000 nM
